# Tested on: bedsores
# Experiment: Clinical observation of bedsores in dementia patients with agitation treated orally with nabilone
# Type: in vivo
# Experimental: Patients with dementia having agitation were treated orally at a dose of 0.5 mg nabilone twice a day initially and then going up to a total of 2 mg per day to reduce agitation. […] The number of patients where this effect was observed was six. The perceived impact on healing was significant with healing times varying between 3-6 weeks for small sores.
compound,measurement,setting,value
CCCCCCC(C)(C)c1cc(O)c2c(c1)OC(C)(C)C1CCC(=O)CC21 (stereo not shown) [nabilone],large sores in treated patients,oral 0.5 mg twice a day up to 2 mg per day,No large sores were observed
same,healing of existing bedsores,"patients who did have bedsores, oral 0.5 mg twice a day up to 2 mg per day",the bedsores appeared to heal faster
same,number and/or severity of bedsores,"patients with dementia having agitation, oral 0.5 mg twice a day initially, up to total 2 mg per day, effect observed in six patients",perceived reduction in the number and/or severity of bedsores
same,healing times for small sores,"small sores, oral 0.5 mg twice a day up to 2 mg per day",3-6 weeks
